{"source": "patent US20100204265A1", "about": "(priority 2009, published 2010)", "note": "pEC50: −log10 of the molar value.", "data": [{"tested_on": "ET (Huh-lucubineo-ET) cell line harboring I389luc-ubi-neo/NS3-3′/ET HCV replicon", "assay": "Replicon assay (HCV replicon, luciferase readout)", "type": "cell-based", "settings": "Hepatitis C virus", "outline": "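Compounds at 10-point 2-fold dilutions (overall 0.1 nM to […], 0.5% DMSO) were applied to ET cells carrying a luciferase-neo HCV replicon, seeded a day earlier. After 48-72 hours, luciferase-based % inhibition was fitted with a Hill equation for EC50, and parallel WST-1 readings gave TC50.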", "values": [{"smiles": "O=C(c1nc2c(C(F)(F)F)cc(C3=CCCC3)cn2c1Cl)N1CC=C(c2ncccc2F)CC1", "note": "[Compound 151, (3-Chloro-6-cyclopent-1-enyl-8-trifluoromethyl-imidazo[1,2-a]pyridin-2-yl)-(3-fluoro-3′,6′-dihydro-2′H-[2,4′]bipyridinyl-1′-yl)-methanone]", "pEC50": 6.13}, {"smiles": "O=C(N[C@@H]1CCN(C(=O)c2nc3c(C(F)(F)F)cc(-c4ccoc4)cn3c2Cl)C1)OCCCl", "note": "(stereo in doubt) [Compound 321, [1-(3-Chloro-6-furan-3-yl-8-trifluoromethyl-imidazo[1,2-a]pyridine-2-carbonyl)-pyrrolidin-3-yl]-carbamic acid 2-chloro-ethyl ester]", "pEC50": "< 4.30"}, {"smiles": "CCOCCOC1CCN(C(=O)c2nc3c(C(F)(F)F)cc(-c4cn[nH]c4)cn3c2Cl)C1", "note": "(centres unmarked) [Compound 233, [3-Chloro-6-(1H-pyrazol-4-yl)-8-trifluoromethyl-imidazo[1,2-a]pyridin-2-yl]-[3-(2-ethoxy-ethoxy)-pyrrohdin-1-yl]-methanone]", "pEC50": "< 4.30"}, {"smiles": "CCS(=O)(=O)NC1CN(C(=O)c2cn3cc(-c4coc(Br)c4)cc(C(F)(F)F)c3n2)C1", "note": "[Compound 146, Ethanesulfonic acid {1-[6-(5-bromo-furan-3-yl)-8-trifluoromethyl-imidazo[1,2-a]pyridine-2-carbonyl]-azetidin-3-yl}-amide]", "pEC50": 5.65}, {"smiles": "NC(=O)[C@H]1CCCN1C(=O)Cc1cn2cc(-c3ccoc3)cc(C(F)(F)F)c2n1", "note": "[Compound 313, 1-[2-(6-Furan-3-yl-8-trifluoromethyl-imidazo[1,2-a]pyridin-2-yl)-acetyl]-pyrrolidine-2-carboxylic acid amide]", "pEC50": "< 4.30"}, {"smiles": "CNC(=O)CNC(=O)c1cn2cc(-c3ccoc3)cc(C(F)(F)F)c2n1", "note": "[Compound 248, 6-Furan-3-yl-8-trifluoromethyl-imidazo[1,2-a]pyridine-2-carboxylic acid methylcarbamoylmethyl-amide]", "pEC50": "< 4.30"}, {"smiles": "COC(=O)CNC(=O)c1cn2cc(-c3ccoc3)cc(C(F)(F)F)c2n1", "note": "[Compound 246, [(6-Furan-3-yl-8-trifluoromethyl-imidazo[1,2-a]pyridine-2-carbonyl)-amino]-acetic acid methyl ester]", "pEC50": "< 4.30"}, {"smiles": "O=C(c1nc2c(C(F)(F)F)cc(-c3ccoc3)cn2c1Cl)N1CC=C(c2ncncc2F)CC1", "note": "[Compound 208, (3-Chloro-6-furan-3-yl-8-trifluoromethyl-imidazo[1,2-a]pyridin-2-yl)-[4-(5-fluoro-pyrimidin-4-yl)-3,6-dihydro-2H-pyridin-1-yl]-methanone]", "pEC50": 6.51}, {"smiles": "COC(=O)[C@@H](NC(=O)Cc1cn2cc(-c3ccoc3)cc(C(F)(F)F)c2n1)C(C)(C)C", "note": "(stereo in doubt) [Compound 294, 2-[2-(6-Furan-3-yl-8-trifluoromethyl-imidazo[1,2-a]pyridin-2-yl)-acetylamino]-3,3-dimethyl-butyric acid methyl ester]", "pEC50": "< 4.30"}, {"smiles": "O=C(c1nc2c(C(F)(F)F)cc(-c3cn[nH]c3)cn2c1Cl)N1CC=C(c2cnoc2)C1", "note": "[Compound 133, [3-Chloro-6-(1H-pyrazol-4-yl)-8-trifluoromethyl-imidazo[1,2-a]pyridin-2-yl]-(3-isoxazol-4-yl-2,5-dihydro-pyrrol-1-yl)-methanone]", "pEC50": 5.46}, {"smiles": "CC(=O)NC(CC(C)C)C(=O)NCc1cn2cc(-c3ccoc3)cc(C(F)(F)F)c2n1", "note": "(centres unmarked) [Compound 243, 2-Acetylamino-4-methyl-pentanoic acid (6-furan-3-yl-8-trifluoromethyl-imidazo[1,2-a]pyridin-2-ylmethyl)-amide]", "pEC50": "< 4.30"}, {"smiles": "O=C(c1nc2c(C(F)(F)F)cc(-c3cccs3)cn2c1Cl)N1CC=C(c2ncccc2F)CC1", "note": "[Compound 123, (3-Chloro-6-thiophen-2-yl-8-trifluoromethyl-imidazo[1,2-a]pyridin-2-yl)-(3-fluoro-3′,6′-dihydro-2′H-[2,4′]bipyridinyl-1′-yl)-methanone]", "pEC50": 6.83}, {"smiles": "COC(=O)C(CCCCNC(=O)OC(C)(C)C)NC(=O)c1cn2cc(-c3ccoc3)cc(C(F)(F)F)c2n1", "note": "(centres unmarked) [Compound 257, 6-tert-Butoxycarbonylamino-2-[(6-furan-3-yl-8-trifluoromethyl-imidazo[1,2-a]pyridine-2-carbonyl)-amino]-hexanoic acid methyl ester]", "pEC50": "< 4.30"}, {"smiles": "O=C1c2ccccc2C(=O)N1Cc1cn2cc(-c3ccoc3)cc(C(F)(F)F)c2n1", "note": "[Compound 234, 2-(6-Furan-3-yl-8-trifluoromethyl-imidazo[1,2-a]pyridin-2-ylmethyl)-isoindole-1,3-dione]", "pEC50": "< 4.30"}, {"smiles": "O=C(c1cc2c(C(F)(F)F)cc(-c3cccs3)nc2[nH]1)N1CC=C(c2ncccc2F)CC1", "note": "[Compound 116, (3-Fluoro-3′,6′-dihydro-2′H-[2,4′]bipyridinyl-1′-yl)-(6-thiophen-2-yl-4-trifluoromethyl-1H-pyrrolo[2,3-b]pyridin-2-yl)-methanone]", "pEC50": 4.61}, {"smiles": "O=C(NCCc1cn2cc(-c3ccoc3)cc(C(F)(F)F)c2n1)c1cccs1", "note": "[Compound 263, Thiophene-2-carboxylic acid [2-(6-furan-3-yl-8-trifluoromethyl-imidazo[1,2-a]pyridin-2-yl)-ethyl]-amide]", "pEC50": "< 4.30"}, {"smiles": "COC(=O)CCNC(=O)c1cn2cc(-c3ccoc3)cc(C(F)(F)F)c2n1", "note": "[Compound 276, 3-[(6-Furan-3-yl-8-trifluoromethyl-imidazo[1,2-a]pyridine-2-carbonyl)-amino]-propionic acid methyl ester]", "pEC50": "< 4.30"}, {"smiles": "CS(=O)(=O)NC1CN(C(=O)c2nc3c(C(F)(F)F)cc(-c4ccco4)cn3c2Cl)C1", "note": "[Compound 139, N-[1-(3-Chloro-6-furan-2-yl-8-trifluoromethyl-imidazo[1,2-a]pyridine-2-carbonyl)-azetidin-3-yl]-methanesulfonamide]", "pEC50": 6.95}, {"smiles": "CS(=O)(=O)NC1CCN(C(=O)c2nc3c(C(F)(F)F)cc(-c4ccoc4)cn3c2Cl)CC1", "note": "[Compound 322, N-[1-(3-Chloro-6-furan-3-yl-8-trifluoromethyl-imidazo[1,2-a]pyridine-2-carbonyl)-piperidin-4-yl]-methanesulfonamide]", "pEC50": 6.57}, {"smiles": "CC(=O)N[C@H](C(=O)NCc1cn2cc(-c3ccoc3)cc(C(F)(F)F)c2n1)C(C)C", "note": "[Compound 288, 2-Acetylamino-N-(6-furan-3-yl-8-trifluoromethyl-imidazo[1,2-a]pyridin-2-ylmethyl)-3-methyl-butyramide]", "pEC50": "< 4.30"}, {"smiles": "CS(=O)(=O)NC1CN(C(=O)Cc2cn3cc(-c4ccoc4)cc(C(F)(F)F)c3n2)C1", "note": "[Compound 190, N-{1-[2-(6-Furan-3-yl-8-trifluoromethyl-imidazo[1,2-a]pyridin-2-yl)-acetyl]-azetidin-3-yl}-methanesulfonamide]", "pEC50": "< 4.30"}, {"smiles": "O=C(c1nc2c(C(F)(F)F)cc(-c3cn[nH]c3)cn2c1Cl)N1CC=C(c2ccoc2)C1", "note": "[Compound 131, [3-Chloro-6-(1H-pyrazol-4-yl)-8-trifluoromethyl-imidazo[1,2-a]pyridin-2-yl]-(3-furan-3-yl-2,5-dihydro-pyrrol-1-yl)-methanone]", "pEC50": 6.57}, {"smiles": "COC(=O)C(Cc1c[nH]c2ccccc12)NC(=O)Cc1cn2cc(-c3ccoc3)cc(C(F)(F)F)c2n1", "note": "(centres unmarked) [Compound 311, 2-[2-(6-Furan-3-yl-8-trifluoromethyl-imidazol[1,2-a]pyridin-2-yl)-acetylamino]-3-(1H-indol-3-yl)-propionic acid methyl ester]", "pEC50": "< 4.30"}, {"smiles": "NC(=O)[C@H](Cc1c[nH]c2ccccc12)NC(=O)Cc1cn2cc(-c3ccoc3)cc(C(F)(F)F)c2n1", "note": "[Compound 303, 2-[2-(6-Furan-3-yl-8-trifluoromethyl-imidazo[1,2-a]pyridin-2-yl)-acetylamino]-3-(1H-indol-3-yl)-propionamide]", "pEC50": "< 4.30"}, {"smiles": "CCCOC1CCN(C(=O)c2nc3c(C(F)(F)F)cc(-c4cn[nH]c4)cn3c2Cl)CC1", "note": "[Compound 176, [3-Chloro-6-(1H-pyrazol-4-yl)-8-trifluoromethyl-imidazo[1,2-a]pyridin-2-yl]-(4-propoxy-piperidin-1-yl)-methanone]", "pEC50": 6.05}, {"smiles": "CC(NC(=O)c1cn2cc(-c3ccoc3)cc(C(F)(F)F)c2n1)C(=O)O", "note": "(centres unmarked) [Compound 265, 2-[(6-Furan-3-yl-8-trifluoromethyl-imidazo[1,2-a]pyridine-2-carbonyl)-amino]-propionic acid]", "pEC50": "< 4.30"}, {"smiles": "O=C(Cc1cn2cc(-c3ccoc3)cc(C(F)(F)F)c2n1)Nc1nccs1", "note": "[Compound 184, 2-(6-Furan-3-yl-8-trifluoromethyl-imidazo[1,2-a]pyridin-2-yl)-N-thiazol-2-yl-acetamide]", "pEC50": "< 4.30"}, {"smiles": "O=C(NCCc1cn2cc(-c3ccoc3)cc(C(F)(F)F)c2n1)Nc1ccccc1", "note": "[Compound 283, 1-[2-(6-Furan-3-yl-8-trifluoromethyl-imidazo[1,2-a]pyridin-2-yl)-ethyl]-3-phenyl-urea]", "pEC50": "< 4.30"}, {"smiles": "CC(=O)NC1CCN(C(=O)c2nc3c(C(F)(F)F)cc(-c4ccoc4)cn3c2Cl)CC1", "note": "[Compound 323, N-[1-(3-Chloro-6-furan-3-yl-8-trifluoromethyl-imidazo[1,2-a]pyridine-2-carbonyl)-piperidin-4-yl]-acetamide]", "pEC50": 4.97}, {"smiles": "O=C(c1nc2c(C(F)(F)F)cc(-c3cn[nH]c3)cn2c1Cl)N1CC=C(c2cn[nH]c2)C1", "note": "[Compound 135, [3-Chloro-6-(1H-pyrazol-4-yl)-8-trifluoromethyl-imidazo[1,2-a]pyridin-2-yl]-[3-(1H-pyrazol-4-yl)-2,5-dihydro-pyrrol-1-yl]-methanone]", "pEC50": 6.22}, {"smiles": "O=C(c1nc2c(C(F)(F)F)cc(-c3cn[nH]c3)cn2c1Cl)N1CC=C(C2=CCNCC2)C1", "note": "[Compound 136, [3-Chloro-6-(1H-pyrazol-4-yl)-8-trifluoromethyl-imidazo[1,2-a]pyridin-2-yl]-[3-(1,2,3,6-tetrahydro-pyridin-4-yl)-2,5-dihydro-pyrrol-1-yl]-methanone]", "pEC50": 5.27}, {"smiles": "O=C(Cc1cn2cc(-c3ccoc3)cc(C(F)(F)F)c2n1)NCCc1ccccc1", "note": "[Compound 192, 2-(6-Furan-3-yl-8-trifluoromethyl-imidazo[1,2-a]pyridin-2-yl)-N-phenethyl-acetamide]", "pEC50": "< 4.30"}]}]}
